The values below come from article PMC10813753 (Biology, 2024).

The subject of one test is HeLa cells. Nature of the test: Annexin V/PI FITC apoptosis assay, HeLa. The format is cell-based, human. The following applies: 20 μM, 48 h, in comparison to untreated cells. Here is the method:
For the Annexin V apoptosis experiments, approximately half of the cells used in combined experiments with cell cycle analysis were harvested via trypsinization, PBS washed and stained with the Annexin-V FITC & PI kit (Invitrogen^TM ref. V 13242, Thermo Fisher, Madrid, Spain) following a standard protocol. A total of 10,000 events were recorded, and the results obtained by flow cytometry were represented as dot plots.

Another test deals with Calf thymus CT DNA. Description: CT DNA viscosity titration. It counts as binding. The following applies: 25 °C, 10 mM sodium phosphate buffer pH 7.2, mean slope. As for the experimental part:
The DNA viscosity titration was conducted as previously reported. For that purpose, Calf thymus CT DNA was used. DNA and compound 1 solutions were freshly prepared in 10 mM NaH2PO4/Na2HPO4 buffer, pH = 7.2. CT DNA solutions (~0.35 mM, nt) were equilibrated for 20 min at 25 °C in a thermostated bath, and 20 flow times were then recorded. Several aliquots (ca. 25–60 μL each) of a solution of ligand 1 (~1.8 mM) were sequentially added. After a 20 min equilibration at 25 °C, flow times were registered. Finally, viscosities (μ) were calculated at each titration point, from the averaged flow times recorded and the viscometer constant. The viscosity graphs were obtained by plotting (μ/μ0)^1/3 versus r, the molar ratio of bound ligand to DNA. The parameter μ0 represents the DNA solution viscosity in the absence of a compound.
Viscosity titration assays are known to provide useful information, mainly in reversible dsDNA-ligand non-covalent binding modes, and, especially, they are normally used to differentiate between classical DNA intercalants from groove or external binders. The theory of Cohen and Eisenberg establishes that the existence (or not) of changes in the viscosity of a DNA solution upon binding to small-molecule ligands could be correlated to the ligand binding mode. […]

For test [1], the system named is telomeric G4 sequence F21T. Description: FRET-based DNA melting assay, telomeric G4 F21T. It counts as binding, human. As to conditions: 0.2 μM F21T, renaturing process, K+ buffer. Here is the method: FRET DNA melting assays were conducted following standard reported procedures. Briefly, the employed oligonucleotides F21T (5′-FAM—(GGG TTA)3GGG—TAMRA-3′) and F10T (5′-FAM—TAT AGC TA TA/Sp18/TA GCT ATA—TAMRA-3′) were dissolved in buffer at 0.25 μM concentration and annealed by heating at 90 °C for 5 min, and then immediately cooling to 0 °C, in the case of F21T, or slowly to rt (F10T) during a period of 3 hours. The solutions were allowed to stand at 4 °C at least overnight.
Tested compounds 1–4 were dissolved in water with up to a maximum 10% DMSO (50 μM stock solution). Each stock solution was then gradually diluted to reach the final concentrations in the assay from 0 to 10 μM and a fixed 0.2 μM concentration of target sequences F21T or F10T. The buffer used for G4 sequence F21T was 10 mM KCl, 90 mM LiCl and 10 mM Li-cacodylate, pH 7.3. The buffer employed for F10T was 100 mM LiCl and 10 mM Li-cacodylate.
The melting process program consisted of an incubation step at 24 °C for 5 min and then a temperature ramp (1 °C/min rate) with fluorescence recordings at every degree up to 95 °C. Subsequently, the microplate with the samples (50 μL) was incubated for 5 min at 96 °C and then gradually cooled by using a temperature ramp of −1 °C/min, with fluorescence measurements at every degree down to 25 °C. The melting and refolding (or renaturing) curves were registered based on the change in emission of the FAM (6-carboxyfluorescein) fluorophore, excited at 492 nm and emitting at 516 nm. Melting temperature values (Tm) were determined from replicate experiments using normalized curves and considering mid-transition T1/2 temperatures.

For “2,2′-(1,10-Phenanthroline-2,9-diyl)-bis(methylene)-bis(hydrazine-1-carbothioamide) [compound 1]”, in the test on HeLa cells, the “increase in the number of early apoptotic and late apoptotic cells” value is on record as 20–25%. In the test with Calf thymus CT DNA, the “viscosity slope, (η/ηo)^1/3 versus r” value is reported as “ca. 0.13”. For the same substance, the “ΔTm of telomeric G4 F21T” value is ~ 7 °C in test [1] (5 μM compound) and ~ 12 °C in test [1] (10 μM compound).
